Blank lines part the entries; values can stand above or below the compound they belong to. Active and inactive are the calls of the source.
What was measured:
HEK293 [1] = assay: membrane integrity loss in HEK cells – cell-based, fluorescence, cytotoxicity control for IDE activator project, dose response (AID 588440); assay type: functional; settings: Homo sapiens;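 further: cytotoxicity by LDH release measuring loss of membrane integrity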
Insulin-degrading enzyme [2] = biological target: T1, Insulin-degrading enzyme (Homo sapiens, UniProt P14735); assay: recombinant IDE activation, cell-free – biochemical, fluorescence polarization, counter-screen for IDE activator project, dose response (AID 588681)
T1 sequence (P14735 whole entry): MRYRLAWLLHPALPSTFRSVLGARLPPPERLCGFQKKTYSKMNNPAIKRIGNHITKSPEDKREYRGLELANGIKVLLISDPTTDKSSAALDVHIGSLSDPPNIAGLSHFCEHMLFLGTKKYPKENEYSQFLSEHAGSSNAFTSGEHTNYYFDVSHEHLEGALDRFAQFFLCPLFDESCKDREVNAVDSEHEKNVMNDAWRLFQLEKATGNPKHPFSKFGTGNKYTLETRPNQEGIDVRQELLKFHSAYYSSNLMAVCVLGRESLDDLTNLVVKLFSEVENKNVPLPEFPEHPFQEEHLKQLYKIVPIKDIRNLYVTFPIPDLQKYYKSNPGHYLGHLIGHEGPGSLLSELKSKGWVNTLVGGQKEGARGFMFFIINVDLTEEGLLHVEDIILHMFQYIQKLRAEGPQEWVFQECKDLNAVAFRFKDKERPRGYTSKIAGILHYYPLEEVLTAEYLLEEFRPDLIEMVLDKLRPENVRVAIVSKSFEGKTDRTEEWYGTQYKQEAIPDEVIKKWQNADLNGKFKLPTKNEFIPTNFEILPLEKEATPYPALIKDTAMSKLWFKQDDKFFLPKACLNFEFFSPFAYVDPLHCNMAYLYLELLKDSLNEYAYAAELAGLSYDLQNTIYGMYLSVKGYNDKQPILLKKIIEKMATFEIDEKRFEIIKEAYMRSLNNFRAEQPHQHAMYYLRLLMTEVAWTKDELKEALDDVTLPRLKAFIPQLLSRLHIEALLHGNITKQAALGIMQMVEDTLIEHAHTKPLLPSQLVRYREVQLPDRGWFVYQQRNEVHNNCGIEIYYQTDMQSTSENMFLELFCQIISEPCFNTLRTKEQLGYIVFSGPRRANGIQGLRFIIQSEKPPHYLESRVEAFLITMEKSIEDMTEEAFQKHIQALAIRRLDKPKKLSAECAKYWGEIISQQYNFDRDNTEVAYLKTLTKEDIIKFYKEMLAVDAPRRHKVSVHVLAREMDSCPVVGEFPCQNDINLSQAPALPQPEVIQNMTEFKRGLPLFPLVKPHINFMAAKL

HEK293 [3] = assay: optical interference in Abeta FP readout, dose response, artefact control for IDE activator project, biochemical, fluorescence polarization (AID 588442); assay type: functional, cell-based; settings: Homo sapiens
Insulin-degrading enzyme [4] = biological target: T1, Insulin-degrading enzyme; assay: cellular IDE activation of Abeta substrate cleavage – fluorescence polarization, HEK cells, dose response (AID 588439); assay type: functional, cell-based
[5] = Fluorescence-based cell-based high throughput dose response assay for inhibitors of the interaction of nucleotide-binding oligomerization domain containing 2 (NOD2) and the receptor-interacting serine-threonine kinase 2 (RIPK2).; assay type: functional; settings: Homo sapiens
Paired box protein Pax-8 = Paired box protein Pax-8 (Homo sapiens, UniProt Q06710); assay: PAX8 transcriptional activity inhibition in RMG-I – RMG-I cells, luciferase, cherry-pick, dose response (AID 687027); assay type: functional, cell-based;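 further: luciferase reporter driven by Pax8 target thyroperoxidase promoter measured by SteadyGlo luminescence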
[6] = reduction of Shn3 3'UTR-driven luciferase in osteoblasts – cell-based, Clone20 osteoblasts, firefly luciferase, cherry-picked, dose response (AID 624132); assay type: functional;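 further: firefly luciferase luminescence from reporter carrying the Shn3 3'UTR in osteoblasts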
[7] = non-specific 3'UTR reporter inhibition in Clone20-Shn3RL – cell-based, Renilla luciferase, cherry-picked, counter-screen for Shn3 inhibitor project, dose response (AID 624133); assay type: functional
[8] = loss of viability in HepG2 cells – cell-based, CellTiter-Glo, cherry-picked, cytotoxicity control for Shn3 inhibitor project, dose response (AID 624134); assay type: functional
[9] = biological target: T2, Neuropeptides B/W receptor type 1 (Homo sapiens, UniProt P48145); assay: human NPBW1 receptor blockade, IC50 – cell-based, fluorescence, dose response, set 6, late-stage follow-up (AID 588583); assay type: functional
T2 sequence (P48145 whole entry): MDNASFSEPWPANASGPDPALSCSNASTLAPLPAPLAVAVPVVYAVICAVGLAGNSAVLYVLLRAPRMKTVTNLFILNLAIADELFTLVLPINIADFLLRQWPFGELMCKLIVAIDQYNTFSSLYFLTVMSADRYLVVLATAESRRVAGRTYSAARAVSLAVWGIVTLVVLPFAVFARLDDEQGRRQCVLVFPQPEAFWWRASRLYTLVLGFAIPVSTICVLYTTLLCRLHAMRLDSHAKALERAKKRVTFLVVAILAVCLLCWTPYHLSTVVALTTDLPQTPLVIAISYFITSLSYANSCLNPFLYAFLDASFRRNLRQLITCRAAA

[10] = biological target: Melanin-concentrating hormone receptor 1 (Homo sapiens, UniProt Q99705); assay: Late-stage fluorescence-based counterscreen for antagonists of the G-protein coupled receptor 7 (GPR7): cell-based dose response assay to identify antagonists of the melanin-concentrating hormone receptor 1 (MCHR1) Set 6.; assay type: functional
Melanocortin receptor 4 = Melanocortin receptor 4 (Homo sapiens, UniProt P32245); assay type: functional, cell-based;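 further: Cell-based assay with luminescence read-out, confirmatory dose-response testing for agonist activity of biased ligands at MC4R; human U2OS cells with tagged receptor and beta-arrestin; potency of agonists that increase receptor coupling to beta-arrestin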
Leucine aminopeptidase = biological target: T3, Leucine aminopeptidase (Plasmodium falciparum 3D7, UniProt Q8IL11); assay: P. falciparum M17LAP inhibitors, primary screen, biochemical, fluorogenic H-Leu-NHMec substrate, 1536-well (AID 1619); assay type: functional
T3 sequence (Q8IL11 whole entry): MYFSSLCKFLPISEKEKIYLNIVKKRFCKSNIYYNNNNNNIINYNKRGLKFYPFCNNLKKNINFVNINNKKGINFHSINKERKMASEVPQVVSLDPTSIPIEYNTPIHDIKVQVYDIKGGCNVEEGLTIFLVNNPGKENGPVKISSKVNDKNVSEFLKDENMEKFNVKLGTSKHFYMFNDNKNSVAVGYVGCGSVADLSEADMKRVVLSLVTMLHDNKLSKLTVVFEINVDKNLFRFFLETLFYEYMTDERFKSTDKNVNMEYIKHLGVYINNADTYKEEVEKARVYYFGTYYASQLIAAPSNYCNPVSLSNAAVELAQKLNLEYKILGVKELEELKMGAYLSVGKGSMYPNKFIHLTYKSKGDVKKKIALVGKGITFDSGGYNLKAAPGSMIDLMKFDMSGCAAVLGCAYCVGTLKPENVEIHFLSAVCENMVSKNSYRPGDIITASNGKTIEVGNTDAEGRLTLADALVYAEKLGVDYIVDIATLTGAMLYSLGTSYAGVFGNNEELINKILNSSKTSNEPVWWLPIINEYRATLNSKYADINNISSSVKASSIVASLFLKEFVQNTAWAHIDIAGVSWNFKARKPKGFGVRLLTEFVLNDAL

[11] = Luminescence Cell-Based Dose Retest to Confirm Inhibitors of Cancer Stem Cells. [Related pubchem assays (depositor defined):AID2717, AID2721]; assay type: functional; settings: Homo sapiens
[12] = Luminescence-based counterscreen assay for KLF5 inhibitors: dose response cell-based high throughput screening assay to identify cytotoxic compounds using the IEC-6 intestinal epithelial cell line. [Related pubchem assays: 1700 (Primary screen.), 1834 (Confirmation screen.), 1858 (Summary AID.), 1905 (Counterscreen.)]; assay type: functional
INS1 = assay: INS-1E survival protection against cytokine death – cell-based, luminescence, retest, dose response (AID 449756); assay type: functional; settings: Rattus norvegicus;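 further: cell death triggered by IL-1 beta plus TNF-alpha plus IFN-gamma mixture; protective hits raise ATP signal compared with cytokine alone wells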
[13] = NIH3T3 cell viability loss, ATP content – CellTiter-Glo luminescence, cherry-pick, set 2, cytotoxicity control for HSP40 inhibitor project, dose response (AID 624265); assay type: functional
[14] = fluconazole-exposed Candida albicans growth modulators – fluorescence, retest, confirmation (AID 2467); assay type: functional, cell-based
Interleukin-8 [15] = biological target: T4, Interleukin-8 (Homo sapiens, UniProt P10145); assay: Dose Response confirmation of uHTS small molecule hits for cystic fibrosis induced NFkb Inhibitors in a TNFa-induced IL8 counterscreen.; assay type: functional; settings: read-out: IC50_Mean
T4 sequence (P10145 whole entry): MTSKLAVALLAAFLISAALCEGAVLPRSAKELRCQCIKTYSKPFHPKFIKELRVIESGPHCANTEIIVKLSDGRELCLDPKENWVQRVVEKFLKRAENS

[16] = NIH-3T3 fibroblast cytotoxicity, dose response, cytotoxicity control, cell-based, fluorescence, Alamar Blue, secondary assay (AID 2327); assay type: functional;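 further: NIH-3T3 mouse fibroblasts cultured with fluconazole at 8 µg/mL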
Interleukin-8 [17] = biological target: T4, Interleukin-8; assay: Dose Response confirmation of uHTS small molecule hits for cystic fibrosis induced NFkb Inhibitors in a PAF-induced IL8 counterscreen.; assay type: functional; settings: read-out: IC50_Mean
[18] = biological target: Potassium voltage-gated channel subfamily KQT member 2 (Rattus norvegicus, UniProt O88943); assay: blockers of KCNQ2 channel current – cell-based, automated electrophysiology, set II, rat KCNQ2, dose response (AID 588637); assay type: functional
[19] = biological target: T5, DNA repair and recombination protein RAD54-like (Homo sapiens, UniProt Q92698); assay: RAD54 Holliday junction migration blockers – biochemical, fluorescence, cherry-picked samples, dose series, confirmation (AID 651657); assay type: functional
T5 sequence (Q92698 whole entry): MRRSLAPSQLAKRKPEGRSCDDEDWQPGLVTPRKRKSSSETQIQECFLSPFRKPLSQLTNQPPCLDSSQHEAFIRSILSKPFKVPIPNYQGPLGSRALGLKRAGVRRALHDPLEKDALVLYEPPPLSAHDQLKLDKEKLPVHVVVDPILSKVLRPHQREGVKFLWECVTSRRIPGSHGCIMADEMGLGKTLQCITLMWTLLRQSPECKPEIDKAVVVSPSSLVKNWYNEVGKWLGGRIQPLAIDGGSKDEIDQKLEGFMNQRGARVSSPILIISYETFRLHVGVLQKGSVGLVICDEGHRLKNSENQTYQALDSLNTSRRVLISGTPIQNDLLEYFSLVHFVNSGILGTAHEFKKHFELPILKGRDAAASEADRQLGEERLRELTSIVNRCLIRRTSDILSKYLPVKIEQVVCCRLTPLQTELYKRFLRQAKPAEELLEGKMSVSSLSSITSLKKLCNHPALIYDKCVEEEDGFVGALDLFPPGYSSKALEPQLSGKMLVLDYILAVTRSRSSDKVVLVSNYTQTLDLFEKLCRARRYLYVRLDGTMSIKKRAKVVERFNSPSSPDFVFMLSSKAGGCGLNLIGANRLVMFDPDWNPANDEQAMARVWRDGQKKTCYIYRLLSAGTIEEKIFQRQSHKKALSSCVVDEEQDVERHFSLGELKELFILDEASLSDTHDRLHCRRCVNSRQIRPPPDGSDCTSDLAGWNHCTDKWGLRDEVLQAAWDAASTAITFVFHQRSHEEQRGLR

[20] = cytotoxicity toward MDA-MB-231 breast cancer cells – cell-based, CellTiter-Glo luminescence, cherry-pick, cytotoxicity control for RAD54 inhibitor project, dose response (AID 651692); assay type: functional
[21] = biological target: T6, DNA repair protein RAD52 homolog (Homo sapiens, UniProt P43351); assay type: functional, biochemical
T6 sequence (P43351 whole entry): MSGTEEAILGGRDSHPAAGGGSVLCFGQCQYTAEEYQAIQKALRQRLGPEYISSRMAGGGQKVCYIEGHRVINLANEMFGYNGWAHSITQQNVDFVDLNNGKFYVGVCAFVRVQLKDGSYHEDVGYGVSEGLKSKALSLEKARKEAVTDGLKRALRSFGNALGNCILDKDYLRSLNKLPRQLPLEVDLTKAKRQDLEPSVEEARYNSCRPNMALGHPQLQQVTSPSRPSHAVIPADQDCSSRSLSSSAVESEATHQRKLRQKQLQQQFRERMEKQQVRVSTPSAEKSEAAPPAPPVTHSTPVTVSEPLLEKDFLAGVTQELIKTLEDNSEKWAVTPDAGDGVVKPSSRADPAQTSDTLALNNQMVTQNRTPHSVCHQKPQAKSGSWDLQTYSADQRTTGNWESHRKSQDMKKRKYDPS

Chain of Melanin-concentrating hormone receptor 1 (Q99705 whole entry): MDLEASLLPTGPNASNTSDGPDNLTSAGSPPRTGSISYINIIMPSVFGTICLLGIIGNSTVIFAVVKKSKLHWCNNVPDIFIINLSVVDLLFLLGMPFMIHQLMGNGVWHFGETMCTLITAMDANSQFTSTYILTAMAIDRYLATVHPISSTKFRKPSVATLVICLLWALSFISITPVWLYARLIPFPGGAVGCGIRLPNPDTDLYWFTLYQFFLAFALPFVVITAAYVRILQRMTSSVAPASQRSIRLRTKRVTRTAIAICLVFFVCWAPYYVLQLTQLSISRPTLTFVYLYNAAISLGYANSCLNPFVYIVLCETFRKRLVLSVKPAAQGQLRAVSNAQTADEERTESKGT
Chain of Potassium voltage-gated channel subfamily KQT member 2 (O88943 whole entry): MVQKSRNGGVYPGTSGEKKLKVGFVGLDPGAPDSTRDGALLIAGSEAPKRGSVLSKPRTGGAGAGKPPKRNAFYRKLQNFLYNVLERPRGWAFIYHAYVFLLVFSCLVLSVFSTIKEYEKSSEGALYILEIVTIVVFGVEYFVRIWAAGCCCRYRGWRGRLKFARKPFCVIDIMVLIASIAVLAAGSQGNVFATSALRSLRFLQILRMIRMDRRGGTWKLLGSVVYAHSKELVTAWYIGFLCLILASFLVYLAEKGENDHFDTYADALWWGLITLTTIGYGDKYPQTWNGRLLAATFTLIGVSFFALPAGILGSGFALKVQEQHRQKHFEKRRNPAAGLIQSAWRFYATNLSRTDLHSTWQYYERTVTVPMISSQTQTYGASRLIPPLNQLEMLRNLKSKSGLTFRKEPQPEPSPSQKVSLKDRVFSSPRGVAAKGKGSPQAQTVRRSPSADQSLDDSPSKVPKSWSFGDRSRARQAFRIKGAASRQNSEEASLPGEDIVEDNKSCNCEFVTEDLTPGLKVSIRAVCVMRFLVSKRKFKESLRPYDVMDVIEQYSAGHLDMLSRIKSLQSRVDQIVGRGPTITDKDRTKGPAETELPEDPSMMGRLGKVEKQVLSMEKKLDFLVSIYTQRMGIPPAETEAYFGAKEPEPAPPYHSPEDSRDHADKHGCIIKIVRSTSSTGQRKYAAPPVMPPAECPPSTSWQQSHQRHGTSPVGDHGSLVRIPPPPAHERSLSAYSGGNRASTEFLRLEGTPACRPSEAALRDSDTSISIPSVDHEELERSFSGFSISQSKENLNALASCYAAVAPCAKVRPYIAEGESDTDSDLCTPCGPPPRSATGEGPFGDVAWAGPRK
Chain of Paired box protein Pax-8 (Q06710 whole entry): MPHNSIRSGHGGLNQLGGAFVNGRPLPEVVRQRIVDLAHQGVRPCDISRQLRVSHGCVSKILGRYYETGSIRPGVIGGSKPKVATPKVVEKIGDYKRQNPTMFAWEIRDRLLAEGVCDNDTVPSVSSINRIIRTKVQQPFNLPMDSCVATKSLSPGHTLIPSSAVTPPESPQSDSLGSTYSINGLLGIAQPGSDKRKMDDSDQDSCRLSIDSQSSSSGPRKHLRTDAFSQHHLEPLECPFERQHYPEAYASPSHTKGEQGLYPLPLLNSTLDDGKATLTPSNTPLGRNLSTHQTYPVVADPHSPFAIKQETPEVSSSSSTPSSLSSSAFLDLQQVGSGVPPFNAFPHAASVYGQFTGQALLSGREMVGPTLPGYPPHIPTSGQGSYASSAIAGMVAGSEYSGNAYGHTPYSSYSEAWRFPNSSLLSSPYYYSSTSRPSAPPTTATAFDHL
Chain of Melanocortin receptor 4 (P32245 whole entry): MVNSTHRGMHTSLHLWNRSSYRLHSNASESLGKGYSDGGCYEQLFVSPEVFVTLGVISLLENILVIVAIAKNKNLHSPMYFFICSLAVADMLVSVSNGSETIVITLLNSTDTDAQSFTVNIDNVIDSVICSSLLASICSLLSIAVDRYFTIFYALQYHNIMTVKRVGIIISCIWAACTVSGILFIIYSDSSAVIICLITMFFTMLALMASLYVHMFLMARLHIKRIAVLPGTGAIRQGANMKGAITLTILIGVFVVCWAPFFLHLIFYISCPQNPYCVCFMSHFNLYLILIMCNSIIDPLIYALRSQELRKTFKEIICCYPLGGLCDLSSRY

SMILES: Cc1ccc(Cn2nc(C)c(C(=O)N3CCN(S(=O)(=O)/C=C/c4ccccc4)CC3)c2C)cc1
IC50 (HEK293 [1]): > 89.2 µM (inactive) | EC50 (Insulin-degrading enzyme [2]): > 54.7 µM (inactive) | EC50 (HEK293 [3]): > 54.7 µM (inactive) | EC50 (Insulin-degrading enzyme [4]): > 54.7 µM (inactive)

SMILES: C=C1C(=O)[C@]23C[C@H]1CC[C@H]2[C@]1(C)[C@@H](OC(C)=O)CC[C@@](C)(C(=O)OC)[C@H]1C[C@@H]3OC(C)=O
IC50 [5]: 3.1 µM (active) | AC50 (Paired box protein Pax-8): 3.62 µM (active) | AC50 [6]: 5.99 µM (active) | AC50 [7]: 5.01 µM (active) | AC50 [8]: 13.6 µM (active)

SMILES: CC(=O)Nc1ccc(N2S(=O)(=O)c3ccccc3S2(=O)=O)cc1
IC50 (HEK293 [1]): > 89.2 µM (inactive) | EC50 (Insulin-degrading enzyme [2]): > 54.7 µM (inactive) | EC50 (HEK293 [3]): > 54.7 µM (inactive) | EC50 (Insulin-degrading enzyme [4]): > 54.7 µM (inactive)

IC50 [9]: > 20 µM (inactive) | IC50 [10]: > 20 µM (inactive)
SMILES: COc1ccc(Oc2c(Cl)cnn(Cc3cc(-c4ccccc4)n(-c4ccccc4)n3)c2=O)cc1

EC50 (Melanocortin receptor 4): > 89.2 µM (inactive) | IC50 (Leucine aminopeptidase): 8.47 µM (active)
SMILES: CC(C)c1ccc(NC(=O)CSc2ncccc2C(=O)Oc2cccc([N+](=O)[O-])c2)cc1

SMILES: Cc1cc(-c2ccccc2)n(-c2cc(N/N=C/c3ccccc3O)ncn2)n1
AC50 [11]: 0.703 µM (active) | IC50 [12]: 9.65 µM (active) | AC50 (INS1): 4.06 µM (active) | AbsAC35_uM [13]: 52.65 µM

SMILES: O=C(Oc1cc2oc(=O)cc(-c3ccccc3)c2cc1Cl)C1CCCCC1
EC50 [14]: 2.32 µM (active) | IC50 (Interleukin-8 [15]): > 79 µM (inactive) | EC50 [16]: > 150 µM (inactive) | IC50 (Interleukin-8 [17]): 9.8 µM (active)

IC50 [18]: 0.634 µM (active)
SMILES: COc1cc(-c2cc(C(=O)N(C)Cc3ccccc3)c3ccccc3n2)cc(OC)c1OC

IC50 [9]: 3.99 µM (active) | IC50 [10]: 3.99 µM (active)
SMILES: Cc1c(C(C#N)c2ccccc2)cnn(Cc2cccc3ccccc23)c1=O (stereo unspecified)

SMILES: CC(=O)Nc1cc(-c2cccc(C(=O)NCCN(C)C)c2)cn2c(-c3ccc(C(C)=O)cc3)cnc12
AC50 [19]: 16.1 µM (active) | AC50 [20]: 31.8 µM (active) | AC50 [21]: 2.12 µM (active)

Source: ChEMBL document CHEMBL1201862, “PubChem BioAssay data set” (2004)
